The target in this experiment is T1, CpeCA (Clostridium perfringens, UniProt A0A0H2YPC2).
T1 construct: gene CPF_0414
The following applies: read-out: CpeCA^bβ; CO2 1.7-17 mM, 20 mM TRIS pH 8.3, 20 mM Na2SO4, 15 min pre-incubation at room temperature; errors 5-10%.

A value given as a limit tells only on which side of the number the result lay.

T1 sequence (A0A0H2YPC2 1-190): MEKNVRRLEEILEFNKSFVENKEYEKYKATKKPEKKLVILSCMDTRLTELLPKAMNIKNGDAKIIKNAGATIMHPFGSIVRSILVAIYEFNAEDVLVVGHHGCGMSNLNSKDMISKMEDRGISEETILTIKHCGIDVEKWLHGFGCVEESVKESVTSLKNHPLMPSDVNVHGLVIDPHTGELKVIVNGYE

On to `CCN[C@H]1CN(CCCOC)S(=O)(=O)c2sc(S(N)(=O)=O)cc21` [BRZ, brinzolamide], for which the Ki is 121 nM.
Take `NS(=O)(=O)c1cc2c(cc1Cl)NCNS2(=O)=O` [HCT, hydrochlorothiazide]: the Ki was 219 nM.
As to `NS(=O)(=O)c1nnc(NS(=O)(=O)c2ccccc2)s1` [BZA, benzolamide], the Ki amounted to 497 nM.
As for `CCN1CCCC1CNC(=O)c1cc(S(N)(=O)=O)ccc1OC` (centres unmarked) [SLP, sulpiride], the figure is 389 nM; as for `NS(=O)(=O)Cc1noc2ccccc12` [ZNS, zonisamide], greater than 100000 nM.
As for `NS(=O)(=O)c1ccc(N2CCCCS2(=O)=O)cc1` [SLT, sulthiame], the figure is 63.1 nM; as for `NS(=O)(=O)c1cc(Cl)c(Cl)c(S(N)(=O)=O)c1` [DCP, dichlorophenamide], 68 nM; as for `CC(=O)N=c1sc(S(N)(=O)=O)nn1C` [MZA, methazolamide], 113 nM.
With `Cc1ccc(-c2cc(C(F)(F)F)nn2-c2ccc(S(N)(=O)=O)cc2)cc1` [CLX, celecoxib], the Ki came to 312 nM.
The result for `NS(=O)(=O)c1ccc(S(=O)(=O)Nc2cccc3c(Cl)c[nH]c23)cc1` [IND, indisulam] reads 173 nM.
The result for `CC1(C)O[C@@H]2[C@@H](CO[C@@]3(COS(N)(=O)=O)OC(C)(C)O[C@@H]23)O1` [TPM, topiramate] reads 204 nM; that for `NS(=O)(=O)c1ccc(CCNS(=O)(=O)c2ccc([N+](=O)[O-])cc2CO)cc1` [compound 24, 4-(2-hydroxymethyl-4-nitrophenyl-sulphonamido)ethylbenzenesulphonamide], 51.2 nM.
For `O=C1NS(=O)(=O)c2ccccc21` [SAC, saccharin], the Ki is greater than 100000 nM.
The result for `Cc1onc(-c2ccccc2)c1-c1ccc(S(N)(=O)=O)cc1` [VLX, valdecoxib] reads 160 nM.

For the origin of these results see publication PMC6009973 (Journal of Enzyme Inhibition and Medicinal Chemistry, 2017).
